Measured values from patent US20040018158A1, “Topical compositions including sunscreen compositions” (Tend Skin International, Inc., priority 1998, published 2004).

Key:
[1] = saturation concentration of acetylsalicylic acid in the solvent mixture; type: physicochemical; details: solvent mixture: propylene glycol about 10% by volume, glycerine about 2 percent by volume, balance isopropyl alcohol/water solution with isopropyl alcohol about 70% by volume
[2] = solubility of acetylsalicylic acid in water; type: physicochemical
From the text: In preparing the composition, it can be helpful to gently warm while stirring the solvent mixture to assist the acetylsalicylic acid in completely dissolving in the solvent mixture. It has been observed that the typical consumer tends to prefer a product that is homogeneous in appearance and without any visible precipitate. […] Thus, aloe vera, for example, while it is soothing to the skin, tends to quickly hydrolyze acetylsalicylic acid. The hydrolysis of the acetylsalicylic acid would substantially and undesirably shorten the shelf life of the product.

Q: For CC(=O)Oc1ccccc1C(=O)O [acetylsalicylic acid], which “saturation concentration of the acetylsalicylic acid in this solvent mixture” value [1] is on record?
A: about 18 % by weight per unit volume

Q: And the “solubility in water or water based substances” value [2]?
A: virtually insoluble
